Data reported in patent US9253984B2, “Herbicidal compositions comprising pyroxasulfone VII” (BASF SE, priority 2008, dated 2016).
Read-outs that look alike come from different tables or passages of the source.

Key:
[1] = tested on: Abutilon theophrasti (ABUTH, velvetleaf); test: greenhouse pre-emergence herbicidal activity; type: in vivo; conditions: read-out: observed % activity; for inhibition at 200 g/ha: 200 g ai/ha; for inhibition at 25 g/ha: 25 g ai/ha; for inhibition at 50 g/ha: 50 g ai/ha
Experimental: (§1) The containers were irrigated gently to promote germination and growth and subsequently covered with transparent plastic hoods until plant had rooted.
(§2) In the examples, the solvent used was water. […] In the examples, the solvent used was water.
(§3) Dicamba was used as a commercial aqueous solution having an active ingredient concentration of 480 g/l.
(§4) The test period extended over 21 days.
(§5) The evaluation for the damage caused by the chemical compositions was carried out using a scale from 0 to 100%, compared to the untreated control plants. Here, 0 means no damage and 100 means complete destruction of the plants.
(§6) The value E, which is to be expected if the activity of the individual compounds is just additive, was calculated using the method of S. R. Colby (1967) “Calculating synergistic and antagonistic responses of herbicide combinations”, Weeds 15, p. 22 ff. E=X+Y−(X·Y/100) where X=effect in percent using herbicide A at an application rate a; • Y=effect in percent using herbicide B at an application rate b; • E=expected effect (in %) of A+B at application rates a+b.
(§7) If the value observed in this manner is higher than the value E calculated according to Colby, a synergistic effect is present.

[2] = tested on: Ambrosia artemisifolia (AMBEL, common ragweed); test: greenhouse pre-emergence herbicidal activity; type: in vivo; conditions: read-out: observed % activity; for inhibition at 200 g/ha: 200 g ai/ha; for inhibition at 50 g/ha: 50 g ai/ha
Experimental: as §1, §2, §3, §4, §5, §6, §7

[3] = tested on: Helianthus annuus (HELAN, sunflower); test: greenhouse pre-emergence herbicidal activity; type: in vivo; conditions: read-out: observed % activity; for inhibition at 50 g/ha: 50 g ai/ha; for inhibition at 100 g/ha: 100 g ai/ha; for inhibition at 200 g/ha: 200 g ai/ha; for inhibition at 25 g/ha: 25 g ai/ha
Experimental: as §1, §2, §3, §4, §5, §6, §7

[4] = tested on: Matricaria inermis (MATIN, scentless mayweed); test: greenhouse pre-emergence herbicidal activity; type: in vivo; conditions: read-out: observed % activity; for inhibition at 200 g/ha: 200 g ai/ha; for inhibition at 50 g/ha: 50 g ai/ha
Experimental: as §1, §2, §3, §4, §5, §6, §7

[5] = tested on: Xanthium strumarium (XANST, cocklebur); test: greenhouse pre-emergence herbicidal activity; type: in vivo; conditions: read-out: observed % activity; for inhibition at 100 g/ha: 100 g ai/ha; for inhibition at 200 g/ha: 200 g ai/ha; for inhibition at 25 g/ha: 25 g ai/ha
Experimental: as §1, §2, §3, §4, §5, §6, §7

[6] = tested on: Alopecurus myosuroides (ALOMY, blackgrass); test: greenhouse post-emergence herbicidal activity; type: in vivo; conditions: read-out: observed % activity; for inhibition at 50 g/ha: 50 g ai/ha; for inhibition at 13 g/ha: 13 g ai/ha
Source text: (§8) For the post-emergence treatment, the test plants were first grown to a height of 3 to 20 cm, depending on the plant habit, and only then treated. Here, the herbicidal compositions were suspended or emulsified in water as distribution medium and sprayed using finely distributing nozzles.
as §2, §3, §4, §5, §6, §7

[7] = tested on: Echinochloa crus-galli (ECHCG, barnyardgrass); test: greenhouse post-emergence herbicidal activity; type: in vivo; conditions: read-out: observed % activity; for inhibition at 100 g/ha: 100 g ai/ha; for inhibition at 13 g/ha: 13 g ai/ha
Source text: as §8, §2, §3, §4, §5, §6, §7

[8] = tested on: Ipomoea purpurea (PHBPU, tall morningglory); test: greenhouse post-emergence herbicidal activity; type: in vivo; conditions: 20 DAT
Source text: as §8, §2, §3, §4, §5, §6, §7

[9] = tested on: Polygonum convolvulus (POLCO, wild buckwheat); test: greenhouse post-emergence herbicidal activity; type: in vivo; conditions: 20 DAT
Source text: as §8, §2, §3, §4, §5, §6, §7

[10] = tested on: Setaria faberii (SETFA, giant foxtail); test: greenhouse post-emergence herbicidal activity; type: in vivo; conditions: Setaria faberi, read-out: observed % activity; for inhibition at 50 g/ha: 50 g ai/ha; for inhibition at 100 g/ha: 100 g ai/ha
Source text: as §8, §2, §3, §4, §5, §6, §7

[11] = tested on: Setaria lutescens (SETLU, yellow foxtail); test: greenhouse post-emergence herbicidal activity; type: in vivo; conditions: read-out: observed % activity; for inhibition at 50 g/ha: 50 g ai/ha; for inhibition at 13 g/ha: 13 g ai/ha
Source text: as §8, §2, §3, §4, §5, §6, §7

harmful plants = conditions: known from Y. Yamaji et al., 2006; cited from earlier work

COc1c(Cl)ccc(Cl)c1C(=O)O [dicamba]
inhibition at 200 g/ha ([1]; 192 h, 8 DAT): 40%
inhibition at 200 g/ha ([1]; 480 h, 20 DAT): 70%
inhibition at 200 g/ha ([2]; 192 h, 8 DAT): 65%
inhibition at 200 g/ha ([2]; 480 h, 20 DAT): 95%
inhibition at 50 g/ha ([3]; 192 h, 8 DAT): 30%
inhibition at 100 g/ha ([3]; 192 h, 8 DAT): 30%
inhibition at 200 g/ha ([3]; 192 h, 8 DAT): 75%
inhibition at 50 g/ha ([3]; 480 h, 20 DAT): 35%
inhibition at 100 g/ha ([3]; 480 h, 20 DAT): 50%
inhibition at 200 g/ha ([3]; 480 h, 20 DAT): 85%
inhibition at 200 g/ha ([4]; 192 h, 8 DAT): 50%
inhibition at 200 g/ha ([4]; 480 h, 20 DAT): 65%
inhibition at 100 g/ha ([5]; 192 h, 8 DAT): 50%
inhibition at 200 g/ha ([5]; 192 h, 8 DAT): 85%
inhibition at 100 g/ha ([5]; 480 h, 20 DAT): 80%
inhibition at 200 g/ha ([5]; 480 h, 20 DAT): 95%
inhibition at 50 g/ha ([6]; 168 h, 7 DAT): 10%
inhibition at 50 g/ha ([6]; 480 h, 20 DAT): 20%
inhibition at 100 g/ha ([7]; 168 h, 7 DAT): 20%
inhibition at 100 g/ha ([7]; 480 h, 20 DAT): 15%
observed activity in % destruction 20 days after treatment ([8]; 200 g ai/ha): 90%
observed activity in % destruction 20 days after treatment ([9]; 50 g ai/ha): 80%
inhibition at 50 g/ha ([10]; 168 h, 7 DAT): 25%
inhibition at 100 g/ha ([10]; 168 h, 7 DAT): 25%
inhibition at 50 g/ha ([10]; 480 h, 20 DAT): 0%
inhibition at 100 g/ha ([10]; 480 h, 20 DAT): 0%
inhibition at 50 g/ha ([11]; 168 h, 7 DAT): 40%
inhibition at 50 g/ha ([11]; 480 h, 20 DAT): 10%

Cn1nc(C(F)(F)F)c(CS(=O)(=O)C2=NOC(C)(C)C2)c1OC(F)F [pyroxasulfone, 3-[5-(difluoromethoxy)-1-methyl-3-(trifluoromethyl)pyrazol-4-ylmethylsulfonyl]-4,5-dihydro-5,5-dimethyl-1,2-oxazole]
inhibition at 25 g/ha ([1]; 192 h, 8 DAT): 50%
inhibition at 50 g/ha ([1]; 192 h, 8 DAT): 50%
inhibition at 25 g/ha ([1]; 480 h, 20 DAT): 80%
inhibition at 50 g/ha ([1]; 480 h, 20 DAT): 98%
inhibition at 50 g/ha ([2]; 192 h, 8 DAT): 50%
inhibition at 50 g/ha ([2]; 480 h, 20 DAT): 80%
inhibition at 25 g/ha ([3]; 192 h, 8 DAT): 0%
inhibition at 50 g/ha ([3]; 192 h, 8 DAT): 0%
inhibition at 25 g/ha ([3]; 480 h, 20 DAT): 0%
inhibition at 50 g/ha ([3]; 480 h, 20 DAT): 0%
inhibition at 50 g/ha ([4]; 192 h, 8 DAT): 20%
inhibition at 50 g/ha ([4]; 480 h, 20 DAT): 85%
inhibition at 25 g/ha ([5]; 192 h, 8 DAT): 0%
inhibition at 25 g/ha ([5]; 480 h, 20 DAT): 0%
inhibition at 13 g/ha ([6]; 168 h, 7 DAT): 0%
inhibition at 13 g/ha ([6]; 480 h, 20 DAT): 15%
inhibition at 13 g/ha ([7]; 168 h, 7 DAT): 25%
inhibition at 13 g/ha ([7]; 480 h, 20 DAT): 80%
observed activity in % destruction 20 days after treatment ([8]; 13 g ai/ha): 30%
observed activity in % destruction 20 days after treatment ([9]; 100 g ai/ha): 55%
inhibition at 50 g/ha ([10]; 168 h, 7 DAT): 65%
inhibition at 50 g/ha ([10]; 480 h, 20 DAT): 90%
inhibition at 13 g/ha ([11]; 168 h, 7 DAT): 0%
inhibition at 13 g/ha ([11]; 480 h, 20 DAT): 65%
post-emergence activity (harmful plants): only poor post-emergence activity
